For ten compounds, TGI results are on record in PubChem BioAssay (NCI).

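Exposure lasted 48 hours, with cells grown in 96-well plates and compounds tested at five concentrations. Definition used: TGI = concentration required for complete inhibition of growth.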 A value given as a limit tells only on which side of the number the result lay.

Experiment in all cases: inhibition of tumour cell growth, NCI panel, 48 h
Assay [1] deals with DU-145 prostate.
The subject of assay [2] is A498 renal.
In assay [3] the test system is COLO 205 colon.
For assay [4], the system named is IGROV1 ovarian.
Assay [5] has as its system HT29 colon.
The test system of assay [6] is UO-31 renal.
The subject of assay [7] is 786-0 renal.
The test system of assay [8] is CAKI-1 renal.
For assay [9], the system named is HOP-92 NSCLC.
Assay [10] relates to EKVX NSCLC.
Assay [11] deals with SF-268 CNS.
The test system of assay [12] is BT-549 breast.
The test system of assay [13] is OVCAR-4 ovarian.
Assay [14] deals with NCI-H226 lung.

For `COc1ccc2c(c1)CC[C@@H]1[C@@H]2CC[C@]2(C)/C(=N/OCCN3CCCC3)CC[C@@H]12`, the TGI came out at 15.5 µM in [1]; 9.9 µM in [2]; 3.06 µM in [3]; 18.4 µM in assay [4]; 3.96 µM in assay [5]; 7.54 µM in assay [6]. In addition, the TGI is 3.37 µM in assay [7]; 3.42 µM in [8]; 6.5 µM in assay [9]; 12.3 µM in assay [10]; 14.4 µM in assay [11]; 22.4 µM in [12]. Further, the TGI amounted to 24.3 µM in assay [13] and 5.26 µM in assay [14].
For the compound `Clc1ccc(Nc2ncco2)cc1Cl`, the TGI in assay [1], in assay [2], in [3], in assay [4], in assay [5] and in [6] was > 10 µM in each case. Also, the TGI in [7], in [8], in assay [9], in assay [10], in [11] and in [12] was > 10 µM each time. The TGI in [13] and in assay [14] was > 10 µM in each case.
For `c1ccc(-c2cnc(SC(c3ccccc3)c3ccccc3)[nH]2)cc1`, the TGI in assay [1] is > 100 µM; in assay [2] it was > 100 µM; in [3] it was 44.1 µM; in [4] it was > 100 µM; in assay [5] it was > 100 µM; in assay [6], > 100 µM. Further, the TGI in assay [7] was > 100 µM; in [8], > 100 µM; in assay [9], 54 µM; in [10] it was 60 µM; in [11], > 100 µM; in [12] it was > 100 µM. Further, the TGI in [13] was > 100 µM; in assay [14], 67.3 µM.
On to `CC(=O)Nc1ccc(NC(=O)CC(=O)Nc2ccc(NC(C)=O)cc2)cc1`, for which the TGI in [1], in assay [2], in [3], in assay [4], in assay [5] and in [6] was > 100 µM throughout. The TGI in assay [7], in assay [8], in assay [9], in assay [10], in assay [11] and in [12] was > 100 µM each time. The TGI in assay [13] and in assay [14] was > 100 µM each time.
As to `CCOC(=O)Oc1cc2ccsc2c2c1c1ccccc1n2C(=O)OCC`, the TGI was > 100 µM in assay [1]; 32.6 µM in [2]; > 100 µM in [3]; > 100 µM in assay [4]; > 100 µM in assay [5]; 60.8 µM in [6]. Moreover, the TGI in [7] was > 100 µM; in [8] it was > 100 µM; in assay [9], 44.7 µM; in [10], > 100 µM; in [11], > 100 µM; in assay [12], > 100 µM. Further, the TGI in assay [13] and in assay [14] was > 100 µM each time.
In the case of `CN(C(=O)[C@H](NC(=O)OCc1ccccc1)c1ccccc1)C1CCCCC1N1CCCC1` (stereo not given in full), the TGI in assay [1], in assay [2], in assay [3], in assay [4], in assay [5] and in assay [6] was > 100 µM in each case. Also, the TGI in [7], in [8], in assay [9], in assay [10], in [11] and in assay [12] was > 100 µM throughout. The TGI in [13] is > 100 µM; in assay [14], 78 µM.
With `OC1(c2ccccc2)CC2CCC(C1)N2CCCC(O)(c1ccccc1)c1ccccc1` (stereo not given), the TGI in [1] was 56.8 µM; in [2], 29.1 µM; in assay [3] it was 30.8 µM; in assay [4], 29.9 µM; in [5], 9.64 µM; in assay [6], 20.2 µM. Moreover, the TGI in assay [7] amounted to 25.6 µM; in assay [8], 27.1 µM; in [9], 18.9 µM; in [10], 38.3 µM; in assay [11], 30.1 µM; in assay [12], 26.3 µM. Also, the TGI in assay [13] was > 100 µM; in [14] it was 29 µM.
Take `N/C(=N\N=C\c1cc2ccccc2s1)c1cnccn1`: the TGI in [1], in [2], in assay [3], in [4], in [5] and in [6] was > 100 µM throughout. The TGI in assay [7], in [8], in assay [9], in [10], in [11] and in [12] was > 100 µM in each case. The TGI in assay [13] and in assay [14] was > 100 µM throughout.
As to `C/C=C/CC(C(=O)OCC)(N(C)C(=O)OC(C)(C)C)S(=O)(=O)c1ccc(C)cc1` (stereo not given), the TGI in [1], in assay [2], in [3], in assay [4], in [5] and in [6] was > 100 µM throughout. Besides, the TGI in assay [7], in assay [8], in assay [9], in assay [10], in assay [11] and in [12] was > 100 µM throughout. Also, the TGI in [13] and in [14] was > 100 µM in each case.
Turning to `C=C1C(=O)OC2C1CCC(=C)C1CC(O)C(=C)C12` (stereo not given), the TGI in assay [1] was 29 µM; in [2] it was 38 µM; in assay [3] it was 6.89 µM; in assay [4], 28 µM; in [5] it was 19.3 µM; in [6], 29.5 µM. Besides, the TGI in assay [7] turned out to be 19.6 µM; in assay [8], 9.78 µM; in [9], 11.3 µM; in assay [10] it was 20.3 µM; in [11], 31.7 µM; in [12] it was 30.4 µM. Further, the figures for the TGI in assay [13] and in [14] were 33.7 µM and > 63.1 µM, respectively.
